*1 amine or outer side, *2 acyl side, *3 side chain or, on linkers, in order; H or OH if unused. Where a SMILES comes first, the peptide text is derived from it. [ ]: non-standard residue; d: D form. Gly(9-fluorenyl) = N[C@H](C(=O)O)C1c2ccccc2-c2ccccc21; X1 = O=C([C@@H](N[*:1])[C@H]1CCc2ccccc21)[*:2]; Tic = O=C(O)[C@@H]1Cc2ccccc2CN1
What was measured:
B2 bradykinin receptor [1] = target: T1, B2 bradykinin receptor (Homo sapiens, UniProt P30411); experiment: Antagonist potency at B2 bradykinin receptor (unknown origin); details: read-out: pA2 (converted)
T1 sequence (P30411 whole entry): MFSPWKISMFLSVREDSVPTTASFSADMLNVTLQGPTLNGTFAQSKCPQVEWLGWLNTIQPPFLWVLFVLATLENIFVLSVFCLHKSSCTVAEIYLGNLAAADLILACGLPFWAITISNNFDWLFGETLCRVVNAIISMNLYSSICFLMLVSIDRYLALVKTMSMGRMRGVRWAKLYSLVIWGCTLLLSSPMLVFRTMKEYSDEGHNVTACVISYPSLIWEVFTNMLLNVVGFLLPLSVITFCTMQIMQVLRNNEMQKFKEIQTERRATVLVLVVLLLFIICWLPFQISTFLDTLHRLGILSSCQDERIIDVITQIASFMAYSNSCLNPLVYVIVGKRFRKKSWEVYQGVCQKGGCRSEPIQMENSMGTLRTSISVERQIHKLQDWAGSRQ

B2 bradykinin receptor [2] = target: T1, B2 bradykinin receptor; experiment: Binding affinity to B2 bradykinin receptor (unknown origin)
Neprilysin = Neprilysin (Homo sapiens, UniProt P08473); experiment: Binding affinity to neutral endopeptidase (unknown origin) assessed as inhibition constant
[3] = target: T2, Angiotensin-converting enzyme (Homo sapiens, UniProt P12821); experiment: Binding affinity to angiotensin-converting enzyme (unknown origin) assessed as inhibition constant
[4] = Inhibition of farnesyltransferase (unknown origin); design: species or system Homo sapiens
Substance-P receptor [5] = target: Substance-P receptor (Homo sapiens, UniProt P25103); experiment: Inhibition of [3H]SP binding to human neurokinin receptor 1 expressed in CHO cells; format: cell-based
[6] = target: T2, Angiotensin-converting enzyme; experiment: Inhibition of angiotensin-converting enzyme (unknown origin)
Substance-P receptor [7] = target: Substance-P receptor (Rattus norvegicus, UniProt P14600); experiment: Inhibition of [125I]BHSP binding to neurokinin receptor 1 in rat brain synaptosomes; format: subcellular, Synaptosome

Work on N=C(N)NCCC[C@@H](N)C(=O)N[C@@H](CCCNC(=N)N)C(=O)N1CCC[C@H]1C(=O)N1C[C@H](O)C[C@H]1C(=O)NCC(=O)N[C@@H](Cc1cccs1)C(=O)N[C@@H](CO)C(=O)N1Cc2ccccc2C[C@@H]1C(=O)N1Cc2ccccc2C[C@H]1C(=O)N[C@@H](CCCNC(=N)N)C(=O)O yielded a Kb (B2 bradykinin receptor [1]) of 0.794 nM and a Ki (B2 bradykinin receptor [2]; read-out: Ki) of 0.38 nM.
O=C(CS)N[C@H]1Cc2ccccc2[C@H]2CCC[C@@H](C(=O)O)N2C1=O gave a Ki (Neprilysin) of 5 nM and a Ki [3] of 2 nM.
Work on N=C(N)NCCC[C@H](NC(=O)CN1Cc2ccccc2C[C@@H](NC(=O)[C@H](CO)NC(=O)[C@H](Cc2ccccc2)NC(=O)CNC(=O)[C@@H]2CCCN2C(=O)[C@@H]2CCCN2C(=O)[C@@H](N)CCCNC(=N)N)C1=O)C(=O)O yielded a Ki (B2 bradykinin receptor [2]; read-out: pKi (converted)) of 2510 nM.
In the case of CSCC[C@H](NC(=O)[C@H]1Cc2ccccc2CN1C(=O)[C@@H](NC(=O)[C@H](CS)NC(=O)[C@@H](N)CCCCN)C(C)C)C(=O)O, the IC50 [4] is reported as 100000 nM.
Compound CC(=O)N1Cc2[nH]c3ccccc3c2C[C@H]1C(=O)OCc1cc(C(F)(F)F)cc(C(F)(F)F)c1 has a Ki (Substance-P receptor [5]) of 390 nM.
Work on CSCC[C@H](NC(=O)C1CC=CCN1C(=O)[C@@H](NC[C@@H](N)CS)C(C)C)C(=O)O (some centres undefined) yielded an IC50 [4] of 270 nM.
For C[C@H](N[C@@H](CCc1ccccc1)C(=O)O)C(=O)N1CCc2ccccc2[C@H]1C(=O)O, the IC50 [6] was 5.8 nM.
Work on CSCC[C@H](NC(=O)[C@H]1Cc2ccccc2CN1C(=O)[C@H](C(C)C)N(C)C(=O)[C@H](CS)NC(=O)[C@@H](N)CCCCN)C(=O)O yielded an IC50 [4] of 5 nM.
With CSCC[C@H](NC(=O)[C@H](Cc1ccccc1)NC(=O)[C@@H](NC(=O)[C@H](CS)NC(C)=O)C(C)C)C(=O)O (Ac-CVFM-OH) the IC50 [4] was 250 nM.
In the case of CSCC[C@H](NC(=O)[C@@H]1Cc2ccccc2CN1C(=O)[C@@H](NC(=O)[C@H](CS)NC(C)=O)C(C)C)C(=O)O (Ac-CV[Tic]M-OH), the IC50 [4] is reported as 11 nM.
CSCC[C@H](NC(=O)[C@@H]1Cc2ccccc2CN1C(=O)[C@@H](NC(=O)[C@@H](N)CS)C(C)C)C(=O)O (H-CV[Tic]M-OH) showed an IC50 [4] of 1 nM.
CC[C@H](C)[C@H](NC(=O)CNC(=O)[C@@H](NC(=O)[C@H](Cc1ccccc1)NC(=O)[C@H](CCC(N)=O)NC(=O)[C@H](CCC(=O)O)NC(=O)[C@H](CCCCN)NC(=O)[C@@H]1CCCN1C(=O)[C@@H](N)CCCNC(=N)N)C1c2ccccc2-c2ccccc21)C(=O)N[C@@H](CCSC)C(=O)O (H-RPKEQF[Gly(9-fluorenyl)]GIM-OH) gave an IC50 (Substance-P receptor [7]) of 3 nM.
CC[C@H](C)[C@H](NC(=O)CNC(=O)[C@@H]1Cc2ccccc2CN1C(=O)[C@H](Cc1ccccc1)NC(=O)[C@H](CCC(N)=O)NC(=O)[C@H](CCC(=O)O)NC(=O)[C@H](CCCCN)NC(=O)[C@@H]1CCCN1C(=O)[C@@H](N)CCCNC(=N)N)C(=O)N[C@@H](CCSC)C(=O)O (H-RPKEQF[Tic]GIM-OH) showed an IC50 (Substance-P receptor [7]) of 1200 nM.
For CC[C@H](C)[C@H](NC(=O)CNC(=O)[C@H](Cc1ccccc1)NC(=O)[C@@H]1Cc2ccccc2CN1C(=O)[C@H](CCC(N)=O)NC(=O)[C@H](CCC(=O)O)NC(=O)[C@H](CCCCN)NC(=O)[C@@H]1CCCN1C(=O)[C@@H](N)CCCNC(=N)N)C(=O)N[C@@H](CCSC)C(=O)O (H-RPKEQ[Tic]FGIM-OH), the IC50 (Substance-P receptor [7]) was 2400 nM.
With CC[C@H](C)[C@H](NC(=O)CNC(=O)[C@H](Cc1ccccc1)NC(=O)[C@@H](NC(=O)[C@H](CCC(N)=O)NC(=O)[C@H](CCC(=O)O)NC(=O)[C@H](CCCCN)NC(=O)[C@@H]1CCCN1C(=O)[C@@H](N)CCCNC(=N)N)[C@H]1CCc2ccccc21)C(=O)N[C@@H](CCSC)C(=O)O (H-RPKEQ[X1]FGIM-OH) the IC50 (Substance-P receptor [7]) was 3 nM.
N=C(N)NCCC[C@H](NC(=O)CN1Cc2ccccc2CC(NC(=O)[C@H](CO)NC(=O)[C@H](Cc2ccccc2)NC(=O)CNC(=O)[C@@H]2CCCN2C(=O)[C@@H]2CCCN2C(=O)[C@@H](N)CCCNC(=N)N)C1=O)C(=O)O (mixture of isomers) gave a Ki (B2 bradykinin receptor [2]; read-out: pKi (converted)) of 794 nM.
With N=C(N)NCCCC(NC(=O)CN1CCCCC2(CCCN2C(=O)[C@H](CO)NC(=O)[C@H](Cc2ccccc2)NC(=O)CNC(=O)[C@@H]2CCCN2C(=O)[C@@H]2CCCN2C(=O)[C@@H](N)CCCNC(=N)N)C1=O)C(=O)O (mixture of isomers; 67) the Ki (B2 bradykinin receptor [2]; read-out: pKi (converted)) was 1260 nM.
With N=C(N)NCCCC(NC(=O)CN1CCCCC2(CCCN2C(=O)[C@H](CO)NC(=O)[C@H](Cc2ccccc2)NC(=O)CNC(=O)[C@@H]2CCCN2C(=O)[C@@H]2CCCN2C(=O)[C@@H](N)CCCNC(=N)N)C1=O)C(=O)O (mixture of isomers; 68) the Ki (B2 bradykinin receptor [2]; read-out: pKi (converted)) was 251 nM.
For O=C(O)CN1C(=O)[C@@H](N[C@@H](CCc2ccccc2)C(=O)O)CCc2ccccc21 [BENAZEPRILAT], the IC50 [6] was 1.7 nM.
Compound CCC[C@H](N[C@@H](C)C(=O)N1[C@H](C(=O)O)C[C@@H]2CCCC[C@@H]21)C(=O)OCC [PERINDOPRIL] has an IC50 [6] of 3.6 nM.
With H-KCVFM-OH the IC50 [4] was 1000 nM.
For H-RPKEQFFGIM-OH, the IC50 (Substance-P receptor [7]) was 0.64 nM.

— ChEMBL document CHEMBL5257037, “Side Chain Cyclized Aromatic Amino Acids: Great Tools as Local Constraints in Peptide and Peptidomimetic Design” (J Med Chem, 2016)
